In patent publication US20070203153A1, “Compositions and methods for treating thrombocytopenia” (Astellas Pharma Inc., priority 2005, published 2007):

Experiments:
[1] = system: Platelets of other species; assay: signaling responses in platelets of other species (anti-phospho-STAT5 immunoblot); type: cell-based; conditions: baboon, rhesus, cynomolgus, squirrel monkey, marmoset, beagle dog, guinea pig, rabbit, hamster, rat, mouse platelets
[2] = system: G-CSF-mobilized human peripheral blood CD34+ cells; assay: differentiation of human CD34+ cells into megakaryocytes, serum-free liquid culture, flow cytometry; type: cell-based; conditions: day 14
Procedure: G-SCF-mobilized human peripheral blood CD34+ cells were cultured with a combination of FORMULA X and TPO, FORMULA X, or rhTPO in a serum-free liquid culture system. The numbers of CD34+CD41− cells (hematopoietic progenitor cells), CD34+CD41+ cells (megakaryocytic progenitor cells), and CD34−CD41+ cells (megakaryocytes) were measured using flow cytometry.
For purposes of this study, the number of megakaryocytes (CD34−CD41+ cells) depicted in FIG. 1 were counted using flow cytometry. The data represents the mean±SE of 5 independent experiments. *: p<0.05, ***p<0.001 compared with 3 nM TPO using Dunnett's test.
The number of hematopoietic progenitor cells ([…]) and megakaryocytic progenitor cells (CD34+CD41+ cells: b) depicted in FIGS. 2 and 3, respectively, were counted using flow cytometry, then compared with 3 nM TPO using Dunnett's test.
On the indicated days, the numbers of hematopoietic progenitor cells ([…]), megakaryocytic progenitor cells (CD34+CD41+ cells: b), and megakaryocytes (CD34−CD41+ cells: c) depicted in FIGS. 4, 5, and 6 were counted using flow cytometry on indicated days. The data represent the mean±SE of 5 independent experiments. *: p<0.05, **p<0.01, ***p<0.001 compared with 3 nM TPO using Dunnett's tests.

[3] = system: human platelets; assay: activation of signaling pathways in platelets (anti-phospho-STAT5 immunoblot), human; type: cell-based
[4] = system: Ba/F3 cell; assay: Ba/F3 cell growth (c-Mpl dependence control); type: cell-based; conditions: Ba/F3 cells without c-Mpl
[5] = system: murine platelets; assay: murine platelet count in human platelet-producing NOD/SCID mice; type: in vivo; conditions: during the study period
Procedure: In this study, we used commercially available cryopreserved human fetal liver CD34+ cells as a source of human hematopoietic stem cells. The cells were transplanted into sublethally irradiated (240 cGy) NOD/SCID mice. Human platelets started to appear in peripheral blood of these mice 4 weeks after transplantation. The production of human platelets continued up to six months post-transplant. Various doses of FORMULA X (0, 0.3, and 3 mg/kg/day) were orally administered for 14 days to NOD/SCID mice that had been confirmed to produce human platelets stably.
The increase in the human platelet count reached about 2.7-fold at 1 mg/kg/day and about 3.0-fold at 3 mg/kg/day on day 14.

[6] = target: T1, human receptor (c-Mpl)-expressing Ba/F3 cells (Homo sapiens, UniProt P40238); assay: proliferation of human c-Mpl-expressing Ba/F3 cells (c-Mpl-Ba/F3 cells); type: cell-based; conditions: read-out: proliferation in a c-Mpl-dependent manner, EC50
T1 construct: expressed in transfected cells; host or cells: Ba/F3 cells
T1 sequence (P40238 26-635): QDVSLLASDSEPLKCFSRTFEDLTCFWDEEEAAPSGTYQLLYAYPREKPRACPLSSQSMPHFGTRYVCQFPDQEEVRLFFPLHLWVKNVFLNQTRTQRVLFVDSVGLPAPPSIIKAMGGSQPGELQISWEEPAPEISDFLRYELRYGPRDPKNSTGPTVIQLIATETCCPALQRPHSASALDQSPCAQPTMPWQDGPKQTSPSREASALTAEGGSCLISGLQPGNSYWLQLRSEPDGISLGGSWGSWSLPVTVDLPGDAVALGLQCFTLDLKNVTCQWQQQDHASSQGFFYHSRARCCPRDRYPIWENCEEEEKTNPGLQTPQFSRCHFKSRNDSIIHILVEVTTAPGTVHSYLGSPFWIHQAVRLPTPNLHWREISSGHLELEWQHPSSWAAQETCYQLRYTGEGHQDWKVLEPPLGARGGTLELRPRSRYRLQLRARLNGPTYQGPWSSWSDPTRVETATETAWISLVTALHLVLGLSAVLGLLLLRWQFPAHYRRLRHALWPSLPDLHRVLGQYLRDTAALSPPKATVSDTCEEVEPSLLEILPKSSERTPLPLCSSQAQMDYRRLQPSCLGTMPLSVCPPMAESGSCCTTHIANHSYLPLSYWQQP
From the text: Thrombopoietin (TPO) is a 332 amino acid cytokine that is the principal physiologic regulator of platelet production. Using a high-throughput growth assay based on the proliferation of human receptor (c-Mpl)-expressing Ba/F3 cells (c-Mpl-Ba/F3 cells), the screening of a library led to the identification of a novel series of c-Mpl agonists.

[7] = system: human platelets; assay: platelet-increasing effect in human platelet-producing NOD/SCID mice; type: in vivo; conditions: for increase in the human platelet count: day 14
From the text: Non-obese diabetic/severe combined immunodeficiency (NOD/SCID) mice were characterized as an efficient engraftment model for human hematopoietic stem cells, as this model results in the production of human platelets. In this way, we examined the in vivo platelet-increasing effect of FORMULA X in human platelet-producing NOD/SCID mice in which human hematopoietic stem cells were transplanted.
In this study, we used commercially available cryopreserved human fetal liver CD34+ cells as a source of human hematopoietic stem cells. The cells were transplanted into sublethally irradiated (240 cGy) NOD/SCID mice. Human platelets started to appear in peripheral blood of these mice 4 weeks after transplantation. The production of human platelets continued up to six months post-transplant. […]

[8] = system: chimpanzee platelets; assay: activation of signaling pathways in platelets (anti-phospho-STAT5 immunoblot), chimpanzee; type: cell-based
[9] = target: T2, human c-Mpl (Homo sapiens, UniProt P40238); assay: effect on TPO binding to human c-Mpl using human platelets; conditions: concentrations up to 100 microM
T2 construct: endogenous in cells; host or cells: human platelets
T2 sequence (P40238 26-635): T1 sequence (P40238 26-635)

[10] = system: human cord blood CD34+ cells; assay: megakaryocyte colony formation of human cord blood CD34+ cells; type: cell-based; conditions: read-out: induction of megakaryocyte colony formation, EC50
[11] = system: G-CSF-mobilized human peripheral blood CD34+ cells; assay: degree of polyploidy of G-CSF-mobilized human peripheral blood CD34+ cells after 12 days incubation; type: cell-based; conditions: compared with rhTPO-treated cells

Compound	signaling responses in platelets (anti-phospho-STAT5 immunoblot) [1]	number of megakaryocytes (CD34-CD41+ cells) ([2]; agent alone (FIG. 1))	activation of signaling pathways in platelets [3]	effect on Ba/F3 cell growth [4]	number of murine platelets [5]	number of megakaryocytes (CD34-CD41+ cells) ([2]; in the presence of 3 nM TPO (FIG. 1))	EC50 [6] [nM]	increase in the human platelet count ([7]; 1 mg/kg/day oral)	increase in the human platelet count ([7]; 3 mg/kg/day oral)	human platelet count after withdrawal of administration ([7]; after withdrawal)	number of human platelets ([7]; oral administration for 14 days, significance at 1 mg/kg/day and above)	activation of signaling pathways in platelets [8]	influence on rhTPO binding to human c-Mpl [9]	EC50 [10] [nM]	ploidy level of cells [11]
TPO: 332 amino acid cytokine that is the principal physiologic regulator of platelet production	showed signaling responses	increased the number of megakaryocytes in a dose-dependent fashion													
O=C(Nc1nc(-c2cc(Cl)cs2)c(N2CCN(C3CCCCC3)CC2)s1)c1cnc(N2CCC(C(=O)O)CC2)c(Cl)c1 [FORMULA X]	no signaling responses	increased the number of megakaryocytes in a dose-dependent fashion	occurred only in human and chimpanzee platelets	no effect	did not change	dose-dependently increased	3.3	about 2.7 fold	about 3.0 fold	return to the pretreatment level	dose-dependently increased	occurred only in human and chimpanzee platelets	did not influence	25	not different from that of cells treated with rhTPO
